# Patent publication US20050234113A1, “Antioxidant and radical scavenging activity of synthetic analogs of desferrithiocin” (University of Florida Research Foundation, Inc., priority 2002, published 2005)
# Several values for one entry are separate records, joined by “and”; a condition that tells them apart may be missing. Equal entries are not always repeated. Where two headings read alike, the source gives them in different places.
# Experiments:
# [1] = system: acetic acid-induced colitis; assay: Acetic acid-induced colitis in rats, densitometric image analysis of colonic damage; type: in vivo; conditions: for Damage (%): 650 μmol kg^−1 intracolonically 30 min before 4% acetic acid, mean ± standard deviation
# Protocol: (§1) The ligands were administered to the rats intracolonically as a suspension or solution in distilled water (2 mL) at a dose of 650 μmol kg^−1. The drug solutions were made fresh for each experiment. ROWASA®, the pharmaceutical preparation which contains 5-ASA (2 mL, 66.7 mg mL^−1) was given at a dose of 2318 μmol kg^−1. Control rats received distilled water (2 mL), administered intracolonically.
# (§2) Animal care and experimental procedures were approved by the Institutional Animal Care and Use Committee. Colitis was induced by a modification of published methods. Briefly, the rats were anesthetized with sodium pentobarbital, 55 mg kg^−1 intraperitoneally. The abdomen was shaved and prepared for surgery. A midline incision was made, and the cecum and proximal colon were exteriorized. A reversible suture was placed at the junction of the cecum and proximal colon. The colon was rinsed with saline (10 mL), and the fluid and intestinal contents were gently expressed out the rectum. A gum-based rectal plug was inserted. The compound of interest, or distilled water in the control animals (2 mL), was injected intracolonically just distal to the ligature. The cecum and proximal colon were returned to the abdominal cavity; the compound was allowed to remain in the gut for 30 min. Then, the cecum and proximal colon were reexteriorized. The rectal plug was removed, and the drug was gently expressed out of the colon. Acetic acid (4%, 2 mL) was injected into the proximal colon over a 15-20-second time period. The acid was allowed to remain in the gut until one minute had passed (i.e., 40-45 seconds after the end of the acid administration). The no acid control rats received distilled water (2 mL), which was administered in the same manner as was the acetic acid. Air (10 mL) was then injected into the proximal colon to expel the acid or water. The cecal/proximal colon ligature was removed, the gut was returned to the abdominal cavity, and the incisions were closed. The animals were allowed to recover overnight and were sacrificed 24 hr later. The entire length of the colon was removed and assessed for damage both densitometrically and biochemically.
# Gross damage was quantitated using Photoshop-based image analysis (version 5.0, Adobe Systems, Mountain View, Calif., USA) on an Apple iMac computer. The Magic Wand tool in the Select menu of Photoshop was used to place the cursor on an area of obvious damage. The tolerance level of the Magic Wand tool was set at 30. The damaged areas were automatically selected by using the Similar command in the Select menu. Then, the Eyedropper tool was used to determine the range of the damage in the highlighted areas. Individual colon images were copied to a blank Photoshop page. The Magic Wand tool, with a tolerance set to 100, was used to select all of the pixels in the colon sample. Then, the Histogram tool, which generates a graph in which each vertical line represents the number of pixels associated with a brightness level, was selected in the Image menu. The Red channel was then selected; the darker (damaged areas) appear on the left side of the histogram and the lighter (normal) areas are on the right side. The cursor was then placed on the histogram, the color range determined in an earlier step was selected, and the number of pixels encompassing that range and the percent damage were quantified automatically.
# Two means were employed to assess the damage to the colon in the presence and absence of ligand, computer-based image analysis and colonic MPO measurement. The densitometric method removes much of the subjectivity involved in the simple scoring approaches. A digital image of the prepared colonic tissue is taken, and a clearly damaged segment is highlighted on the screen. Once the computer identifies all other segments of the intestine with the same or greater damage, a pixel number is generated; this number makes it possible to calculate the percentage of damaged intestine.
# [2] = system: Myeloperoxidase (MPO) activity in colonic tissue; assay: Myeloperoxidase (MPO) assay in colonic tissue of rats with acetic acid-induced colitis; type: in vivo; conditions: 650 μmol kg^−1 intracolonically 30 min before 4% acetic acid, mean ± standard deviation
# Protocol: as §1, §2
# The activity of MPO was measured in colonic tissue by a modification of the method of Krawisz et al. in Gastroenterology 87, 1344-1350 (1984). Each excised colon was homogenized in 9 volumes of homogenization buffer (0.5% hexadecyltrimethylammonium bromide (HDTMA) in 50 mM sodium acetate, pH 6.0); this homogenate was centrifuged at 1200 g for 20 min at 4° C. A sample of the supernatant (1.8 mL) was transferred into a microcentrifuge tube and stored frozen at −20° C. for up to one week. Prior to assay, the thawed aliquot was centrifuged at about 10,000 g for 15 minutes at 4° C. The final supernatant (33 μL) was added to a solution of o-dianisidine HCl (0.17 mg mL^−1 in 50 mM sodium acetate, pH 6.0, made fresh daily and filtered immediately before use) (950 μL), the mixture was vortexed, and the peroxidase reaction was initiated by the addition of H2O2 to 50 mM sodium acetate, pH 6.0, made fresh daily (16.7 μL). The A470 at room temperature (ca. 23° C.) was read at 15-second intervals for 2 min. The rates were assessed graphically and are presented as change in milliabsorbance units (ΔmAU)/min per g tissue. Under these conditions, 0.1 “Unit” of purified human leukocyte myeloperoxidase (Sigma M-6908) produced a ΔA470 of about 400 mAU/min.
# The biochemical measurement involves measuring the level of MPO in a sample of homogenate of the whole rat colon. When the colon is damaged by the acetic acid, there is an extravasation of neutrophils. The extent of this infiltration can serve as a quantitative marker for tissue damage. Although other leukocytes, such as eosinophils and monocytes, also contribute to the inflammatory response, their contribution is small; the majority of the cells recruited during the acute inflammatory response are neutrophils. […]
# [3] = Quenching of the ABTS radical cation; conditions: Table 5; 6-min reaction, initial OD 1.000
# [4] = system: iron; conditions: cited from earlier work
# [5] = 150 μmol/kg sc, suspension in water, n = 3
# [6] = 300 μmol/kg po, in 40% Cremophor
# [7] = 150 μmol/kg po (footnote d: dose administered, 300 μmol/kg)
SMILES,Damage (%) [1] [%],"protection against acetic acid-induced colonic damage (in words) ([1]; intracolonic, image analysis and MPO assay)",MPO activity [2],Slope × 10^3 OD units/μM (ABTS radical cation quenching) [3],"% stool (of iron excreted), monkeys [4, 5] [%]","% urine (of iron excreted), monkeys [4, 5] [%]","efficiency in monkeys (%) [4, 5]","% stool (of iron excreted), monkeys [4, 6] [%]","% urine (of iron excreted), monkeys [4, 6] [%]","efficiency in monkeys (%) [4, 6]","% stool (of iron excreted), monkeys [4, 7] [%]","% urine (of iron excreted), monkeys [4, 7] [%]","efficiency in monkeys (%) [4, 7]","% stool (of iron excreted), monkeys ([4]; 150 μmol/kg sc, n = 5) [%]","% urine (of iron excreted), monkeys ([4]; 150 μmol/kg sc, n = 5) [%]","efficiency in monkeys (%) ([4]; 150 μmol/kg sc, n = 5)"
"O=C(O)[C@H]1CSC(c2ccc(O)cc2O)=N1 [4′-(HO)-DADMDFT, 4′-hydroxydesazadesmethyldesferrithiocin]",57 ± 15,ineffective,56466 ± 52617 mAU min^−1g of colonic tissue^−1,−102 × 10^3 OD units/μM,92,8,5.6±0.9% and 5.6 ± 0.9^f %,90,10,5.3±1.7% and 5.3 ± 1.7^f %,,,,,,
"CC(=O)N(O)CCCCCNC(=O)CCC(=O)N(O)CCCCCNC(=O)CCC(=O)N(O)CCCCCN [DFO, Desferrioxamine B, reference compound]",39 ± 15,,20049 ± 17314 mAU min^−1g of colonic tissue^−1,,,,,,,,55,45,0.1±0.4% and 0.1 ± 0.4^d %,45,55,5.5±0.9
